Laboratory results as given in patent US12006294B2, “Therapeutic compounds” (REGENTS OF THE UNIVERSITY OF MINNESOTA, priority 2017, dated 2024).
Where a name gives a salt, the structure may show the parent alone. Read-outs that look alike come from different tables or passages of the source.

System: Hela Cells
Experiment: Cellular ER stress model (tunicamycin, WST-8 cell viability)
Details: Homo sapiens, HeLa, 48 h
[1] = read-out: % Cell Survival Cmpd(2.5 μM) + Tuni, Hela cells, compound 2.5 μM + tunicamycin, WST-8 viability 48 hours after tunicamycin treatment
[2] = read-out: Compounds ERS (vs Tn), ERS activity vs Tuni = % cell survival (compound)/% cell survival (tunicamycin), compound 2.5 μM

Compound: N=C(N)NCC(O)c1c(Cl)cccc1Cl (centres unmarked) [JM3-27-2, 1-(2-(2,6-dichlorophenyl)-2-hydroxyethyl)guanidine]
- viability at 2.5 µM [1]: 28.6%
- viability at 2.5 µM [2]: 109%

Compound: N=C(N)N/N=C/c1c(Cl)ccnc1Cl [JM3-29-2, (E)-2-((2,4-dichloropyridin-3-yl)methylene)hydrazine-1-carboximidamide acetate]
- viability at 2.5 µM [1]: 32.2%
- viability at 2.5 µM [2]: 122%

Compound: N=C(N)N/N=C/c1ccc(Br)cc1Cl [JM3-57-2, (E)-2-(4-bromo-2-chlorobenzylidene)hydrazine-1-carboximidamide acetate]
- viability at 2.5 µM [1]: 28.1%
- viability at 2.5 µM [2]: 107%

Compound: N=C(N)N/N=C/c1ccc(-c2ccccc2)cc1Cl [JM3-63-2, (E)-2-((3-chloro-[1,1′-biphenyl]-4-yl)methylene)hydrazine-1-carboximidamide acetate]
- viability at 2.5 µM [1]: 15.9%
- viability at 2.5 µM [2]: 60%

Compound: N=C(N)N/N=C/c1c(Cl)cc(-c2ccccc2)cc1Cl [JM3-67-2, (E)-2-((3,5-dichloro-[1,1′-biphenyl]-4-yl)methylene)hydrazine-1-carboximidamide]
- viability at 2.5 µM [1]: 23.3%
- viability at 2.5 µM [2]: 102%

Compound: CCc1cccc(Cl)c1/C=N/NC(=N)N [JM3-81-2, (E)-2-(2-chloro-6-ethylbenzylidene)hydrazine-1-carboximidamide acetate]
- viability at 2.5 µM [1]: 29.9%
- viability at 2.5 µM [2]: 130%

Compound: CC(C)c1cccc(Cl)c1/C=N/NC(=N)N [JM3-89-2, (E)-2-(2-chloro-6-isopropylbenzylidene)hydrazine-1-carboximidamide acetate]
- viability at 2.5 µM [1]: 22%
- viability at 2.5 µM [2]: 96%

Compound: CC(C)c1cccc(C(C)C)c1/C=N/NC(=N)N [JM3-99-2, (E)-2-(2,6-diisopropylbenzylidene)hydrazine-1-carboximidamide]
- viability at 2.5 µM [1]: 20.9%
- viability at 2.5 µM [2]: 91%

Compound: Clc1cccc(Cl)c1Cc1ncc[nH]1 [JM3-131-2, 2-(2,6-dichlorobenzyl)-1H-imidazole]
- viability at 2.5 µM [1]: 22.8%
- viability at 2.5 µM [2]: 100%

Compound: N=C(N)N/N=C/c1c(C(F)(F)F)cccc1C(F)(F)F [JM3-141-2, (E)-2-(2,6-bis(trifluoromethyl)benzylidene)hydrazine-1-carboximidamide acetate]
- viability at 2.5 µM [1]: 19.6%
- viability at 2.5 µM [2]: 86%

Compound: Clc1cccc(/C=N/NC2=NCCN2)c1Cl [JM3-149-2, (E)-2-(2-(2,3-dichlorobenzylidene)hydrazinyl)-4,5-dihydro-1H-imidazole hydrochloride]
- viability at 2.5 µM [1]: 29.1%
- viability at 2.5 µM [2]: 125%

Compound: Clc1ccc(Cl)c(/C=N/NC2=NCCN2)c1Cl [JM3-151-2, (E)-2-(2-(2,3,6-trichlorobenzylidene)hydrazinyl)-4,5-dihydro-1H-imidazole hydrochloride]
- viability at 2.5 µM [1]: 24.2%
- viability at 2.5 µM [2]: 104%

Compound: Clc1cccc(/C=N/NC2=NCCCN2)c1Cl [JM3-153-2, (E)-2-(2-(2,3-dichlorobenzylidene)hydrazinyl)-1,4,5,6-tetrahydropyrimidine hydrochloride]
- viability at 2.5 µM [1]: 36%
- viability at 2.5 µM [2]: 155%

Compound: Clc1ccc(Cl)c(/C=N/NC2=NCCCN2)c1Cl [JM3-155-2, (E)-2-(2-(2,3,6-trichlorobenzylidene)hydrazinyl)-1,4,5,6-tetrahydropyrimidine hydrochloride]
- viability at 2.5 µM [1]: 31.2%
- viability at 2.5 µM [2]: 135%

Compound: CCCCNC(=N)N/N=C/c1c(Cl)cccc1Cl [JM3-161-2, (E)-N-butyl-2-(2,6-dichlorobenzylidene)hydrazine-1-carboximidamide hydroiodide]
- viability at 2.5 µM [1]: 14.7%
- viability at 2.5 µM [2]: 63%

Compound: Clc1cccc(CC2=NCCN2)c1Cl [JM3-179-2, 2-(2,3-dichlorobenzyl)-4,5-dihydro-1H-imidazole]
- viability at 2.5 µM [1]: 20.4%
- viability at 2.5 µM [2]: 88%

Compound: Clc1cccc(CC2=NCCCN2)c1Cl [JM3-181-2, 2-(2,3-dichlorobenzyl)-1,4,5,6-tetrahydropyrimidine]
- viability at 2.5 µM [1]: 19.6%
- viability at 2.5 µM [2]: 102%

Compound: N=C(N)N/N=C/c1ccccc1I [JM3-183-2, (E)-2-(2-iodobenzylidene)hydrazine-1-carboximidamide acetate]
- viability at 2.5 µM [1]: 24.2%
- viability at 2.5 µM [2]: 104%

Compound: Cc1[nH]c(N/N=C/c2c(Cl)cccc2Cl)nc(=O)c1C [JM3-191-2, (E)-2-(2-(2,6-dichlorobenzylidene)hydrazinyl)-5,6-dimethylpyrimidin-4(1H)-one]
- viability at 2.5 µM [1]: 40.6%
- viability at 2.5 µM [2]: 175%

Compound: Cc1[nH]c(N/N=C/c2cccc(Cl)c2Cl)nc(=O)c1C [JM3-195-2, (E)-2-(2-(2,3-dichlorobenzylidene)hydrazinyl)-5,6-dimethylpyrimidin-4(1H)-one]
- viability at 2.5 µM [1]: 29.7%
- viability at 2.5 µM [2]: 128%

Compound: Cc1cc(=O)nc(N/N=C/c2c(Cl)cccc2Cl)[nH]1 [JM3-197-2, (E)-2-(2-(2,6-dichlorobenzylidene)hydrazinyl)-6-methylpyrimidin-4(1H)-one]
- viability at 2.5 µM [1]: 20.4%
- viability at 2.5 µM [2]: 106%

Compound: Cc1cc(=O)nc(N/N=C/c2cccc(Cl)c2Cl)[nH]1 [JM3-199-2, (E)-2-(2-(2,3-dichlorobenzylidene)hydrazinyl)-6-methylpyrimidin-4(1H)-one]
- viability at 2.5 µM [1]: 22.9%
- viability at 2.5 µM [2]: 120%

Compound: Cc1cc(=O)nc(N/N=C/c2c(Cl)ccc(Cl)c2Cl)[nH]1 [JM3-201-2, (E)-6-methyl-2-(2-(2,3,6-trichlorobenzylidene)hydrazinyl)pyrimidin-4(1H)-one]
- viability at 2.5 µM [1]: 20%
- viability at 2.5 µM [2]: 104%

Compound: Cc1[nH]c(N/N=C/c2c(Cl)ccc(Cl)c2Cl)nc(=O)c1C [JM3-205-2, (E)-5,6-dimethyl-2-(2-(2,3,6-trichlorobenzylidene)hydrazinyl)pyrimidin-4(1H)-one]
- viability at 2.5 µM [1]: 20.7%
- viability at 2.5 µM [2]: 108%

Compound: Cc1[nH]c(N/N=C/c2c(F)cccc2Cl)nc(=O)c1C [JM3-207-2, (E)-2-(2-(2-chloro-6-fluorobenzylidene)hydrazinyl)-5,6-dimethylpyrimidin-4(1H)-one]
- viability at 2.5 µM [1]: 23.1%
- viability at 2.5 µM [2]: 120%

Compound: Cc1[nH]c(N/N=C/c2ccc(Cl)c(Cl)c2)nc(=O)c1C [JM3-209-2, (E)-2-(2-(3,4-dichlorobenzylidene)hydrazinyl)-5,6-dimethylpyrimidin-4(1H)-one]
- viability at 2.5 µM [1]: 21.6%
- viability at 2.5 µM [2]: 113%

Compound: Cc1cc(=O)nc(N/N=C/c2ccc(Cl)c(Cl)c2)[nH]1 [JM3-211-2, (E)-2-(2-(3,4-dichlorobenzylidene)hydrazinyl)-6-methylpyrimidin-4(1H)-one]
- viability at 2.5 µM [1]: 20.2%
- viability at 2.5 µM [2]: 105%

Compound: Cc1[nH]c(N/N=C/c2ccccc2Cl)nc(=O)c1C [JM3-213-2, (E)-2-(2-(2-chlorobenzylidene)hydrazinyl)-5,6-dimethylpyrimidin-4(1H)-one]
- viability at 2.5 µM [1]: 22.8%
- viability at 2.5 µM [2]: 119%

Compound: Cc1cc(=O)nc(N/N=C/c2ccccc2Cl)[nH]1 [JM3-215-3, (E)-2-(2-(2-chlorobenzylidene)hydrazinyl)-6-methylpyrimidin-4(1H)-one]
- viability at 2.5 µM [1]: 21%
- viability at 2.5 µM [2]: 110%

Compound: NC(=O)N/N=C/c1ccccc1Br [JM3-219-4, (E)-2-(2-bromobenzylidene)hydrazine-1-carboxamide hydrochloride]
- viability at 2.5 µM [1]: 20%
- viability at 2.5 µM [2]: 104%

Compound: NC(=O)N/N=C/c1ccccc1F [JM3-221-2, (E)-2-(2-fluorobenzylidene)hydrazine-1-carboxamide hydrochloride]
- viability at 2.5 µM [1]: 28.9%
- viability at 2.5 µM [2]: 122%
